Measured values as given in PubChem BioAssay (NCI).
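Each compound was tested at five concentrations against cells in 96-well plates for 48 hours. TGI is the concentration that stops growth completely.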

Tests used:
Assay in all cases: NCI tumour cell line growth inhibition, 48 h
OVCAR-8 ovarian = system: OVCAR-8 ovarian
EKVX NSCLC = system: EKVX NSCLC
NCI/ADR-RES ovarian = system: NCI/ADR-RES ovarian
KM12 colon = system: KM12 colon
NCI-H226 lung = system: NCI-H226 lung
SN12C renal = system: SN12C renal
HOP-62 NSCLC = system: HOP-62 NSCLC
HCC-2998 colon = system: HCC-2998 colon
DU-145 prostate = system: DU-145 prostate
786-0 renal = system: 786-0 renal
U251 CNS = system: U251 CNS
PC-3 prostate = system: PC-3 prostate
RXF 393 renal = system: RXF 393 renal
MDA-MB-231 breast = system: MDA-MB-231 breast
OVCAR-4 ovarian = system: OVCAR-4 ovarian
TK-10 renal = system: TK-10 renal
HT29 colon = system: HT29 colon
SK-MEL-2 melanoma = system: SK-MEL-2 melanoma
HCT-15 colon = system: HCT-15 colon
CAKI-1 renal = system: CAKI-1 renal
NCI-H23 lung = system: NCI-H23 lung
IGROV1 ovarian = system: IGROV1 ovarian
MDA-MB-435 = system: MDA-MB-435
UO-31 renal = system: UO-31 renal
K-562 leukemia = system: K-562 leukemia
SW-620 colon = system: SW-620 colon
UACC-257 melanoma = system: UACC-257 melanoma
LOX IMVI melanoma = system: LOX IMVI melanoma
NCI-H522 lung = system: NCI-H522 lung
ACHN renal = system: ACHN renal
SNB-19 CNS = system: SNB-19 CNS
SR leukemia = system: SR leukemia
BT-549 breast = system: BT-549 breast
SF-268 CNS = system: SF-268 CNS
HS 578T breast = system: HS 578T breast
MALME-3M melanoma = system: MALME-3M melanoma
HL-60(TB) leukemia = system: HL-60(TB) leukemia
MOLT-4 leukemia = system: MOLT-4 leukemia
UACC-62 melanoma = system: UACC-62 melanoma
T-47D breast = system: T-47D breast
HCT-116 colon = system: HCT-116 colon
NCI-H460 lung = system: NCI-H460 lung
COLO 205 colon = system: COLO 205 colon
SF-295 CNS = system: SF-295 CNS
MCF7 breast = system: MCF7 breast
RPMI-8226 leukemia = system: RPMI-8226 leukemia
A498 renal = system: A498 renal
MDA-N = system: MDA-N
SK-MEL-5 melanoma = system: SK-MEL-5 melanoma
SK-MEL-28 melanoma = system: SK-MEL-28 melanoma
SNB-75 CNS = system: SNB-75 CNS
OVCAR-3 ovarian = system: OVCAR-3 ovarian
OVCAR-5 ovarian = system: OVCAR-5 ovarian
A549 NSCLC = system: A549 NSCLC
SK-OV-3 ovarian = system: SK-OV-3 ovarian
SF-539 CNS = system: SF-539 CNS
HOP-92 NSCLC = system: HOP-92 NSCLC
M14 melanoma = system: M14 melanoma
CCRF-CEM leukemia = system: CCRF-CEM leukemia

## O=C1/C(=C/c2cc3c(=O)c4ccccc4sc3s2)NC(=S)N1c1ccccc1
OVCAR-8 ovarian
  TGI: > 100 µM
EKVX NSCLC
  TGI: > 100 µM
NCI/ADR-RES ovarian
  TGI: > 100 µM
KM12 colon
  TGI: > 100 µM
NCI-H226 lung
  TGI: > 100 µM
SN12C renal
  TGI: > 100 µM
HOP-62 NSCLC
  TGI: > 100 µM
HCC-2998 colon
  TGI: > 100 µM
DU-145 prostate
  TGI: > 100 µM
786-0 renal
  TGI: > 100 µM
U251 CNS
  TGI: > 100 µM
PC-3 prostate
  TGI: > 100 µM
RXF 393 renal
  TGI: > 100 µM
MDA-MB-231 breast
  TGI: > 100 µM
OVCAR-4 ovarian
  TGI: > 100 µM
TK-10 renal
  TGI: > 100 µM
HT29 colon
  TGI: > 100 µM
SK-MEL-2 melanoma
  TGI: > 100 µM
HCT-15 colon
  TGI: > 100 µM
CAKI-1 renal
  TGI: > 100 µM
NCI-H23 lung
  TGI: > 100 µM
IGROV1 ovarian
  TGI: > 100 µM
MDA-MB-435
  TGI: > 100 µM
UO-31 renal
  TGI: > 100 µM
K-562 leukemia
  TGI: > 100 µM
SW-620 colon
  TGI: > 100 µM
UACC-257 melanoma
  TGI: > 100 µM
LOX IMVI melanoma
  TGI: > 100 µM
NCI-H522 lung
  TGI: > 100 µM
ACHN renal
  TGI: > 100 µM
SNB-19 CNS
  TGI: > 100 µM
SR leukemia
  TGI: 49.6 µM
BT-549 breast
  TGI: > 100 µM
SF-268 CNS
  TGI: > 100 µM
HS 578T breast
  TGI: > 100 µM
MALME-3M melanoma
  TGI: > 100 µM
HL-60(TB) leukemia
  TGI: 66.9 µM
MOLT-4 leukemia
  TGI: > 100 µM
UACC-62 melanoma
  TGI: > 100 µM
T-47D breast
  TGI: > 100 µM
HCT-116 colon
  TGI: > 100 µM
NCI-H460 lung
  TGI: > 100 µM
COLO 205 colon
  TGI: > 100 µM
SF-295 CNS
  TGI: > 100 µM
MCF7 breast
  TGI: > 100 µM
RPMI-8226 leukemia
  TGI: > 100 µM
A498 renal
  TGI: > 100 µM
MDA-N
  TGI: > 100 µM
SK-MEL-5 melanoma
  TGI: > 100 µM
SK-MEL-28 melanoma
  TGI: > 100 µM
SNB-75 CNS
  TGI: > 100 µM
OVCAR-3 ovarian
  TGI: > 100 µM
OVCAR-5 ovarian
  TGI: > 100 µM

## COc1cc2c(cc1O)NC(=S)[C@@H]1CCCN1C2=O
OVCAR-8 ovarian
  TGI: > 100 µM
EKVX NSCLC
  TGI: > 100 µM
NCI/ADR-RES ovarian
  TGI: > 100 µM
KM12 colon
  TGI: > 100 µM
NCI-H226 lung
  TGI: > 100 µM
SN12C renal
  TGI: > 100 µM
HOP-62 NSCLC
  TGI: > 100 µM
HCC-2998 colon
  TGI: > 100 µM
DU-145 prostate
  TGI: > 100 µM
786-0 renal
  TGI: > 100 µM
U251 CNS
  TGI: > 100 µM
A549 NSCLC
  TGI: > 100 µM
PC-3 prostate
  TGI: > 100 µM
RXF 393 renal
  TGI: > 100 µM
MDA-MB-231 breast
  TGI: > 100 µM
OVCAR-4 ovarian
  TGI: > 100 µM
TK-10 renal
  TGI: > 100 µM
HT29 colon
  TGI: > 100 µM
SK-MEL-2 melanoma
  TGI: > 100 µM
HCT-15 colon
  TGI: > 100 µM
CAKI-1 renal
  TGI: > 100 µM
NCI-H23 lung
  TGI: > 100 µM
IGROV1 ovarian
  TGI: > 100 µM
MDA-MB-435
  TGI: > 100 µM
UO-31 renal
  TGI: > 100 µM
K-562 leukemia
  TGI: > 100 µM
SW-620 colon
  TGI: > 100 µM
UACC-257 melanoma
  TGI: > 100 µM
LOX IMVI melanoma
  TGI: > 100 µM
SK-OV-3 ovarian
  TGI: > 100 µM
SF-539 CNS
  TGI: > 100 µM
NCI-H522 lung
  TGI: > 100 µM
HOP-92 NSCLC
  TGI: > 100 µM
ACHN renal
  TGI: > 100 µM
SNB-19 CNS
  TGI: > 100 µM
SR leukemia
  TGI: > 100 µM
BT-549 breast
  TGI: > 100 µM
SF-268 CNS
  TGI: > 100 µM
HS 578T breast
  TGI: > 100 µM
MALME-3M melanoma
  TGI: > 100 µM
MOLT-4 leukemia
  TGI: > 100 µM
UACC-62 melanoma
  TGI: > 100 µM
T-47D breast
  TGI: > 100 µM
HCT-116 colon
  TGI: > 100 µM
NCI-H460 lung
  TGI: > 100 µM
COLO 205 colon
  TGI: > 100 µM
SF-295 CNS
  TGI: > 100 µM
MCF7 breast
  TGI: > 100 µM
RPMI-8226 leukemia
  TGI: > 100 µM
A498 renal
  TGI: > 100 µM
MDA-N
  TGI: > 100 µM
SK-MEL-5 melanoma
  TGI: > 100 µM
SK-MEL-28 melanoma
  TGI: > 100 µM
SNB-75 CNS
  TGI: > 100 µM
OVCAR-3 ovarian
  TGI: > 100 µM
OVCAR-5 ovarian
  TGI: > 100 µM
M14 melanoma
  TGI: > 100 µM
CCRF-CEM leukemia
  TGI: > 100 µM

## O=c1[nH]c(=O)n(C2CC(O)C(CO)O2)c2nc3cc4ccccc4cc3nc12 (stereo not drawn)
OVCAR-8 ovarian
  TGI: > 100 µM
EKVX NSCLC
  TGI: > 100 µM
NCI/ADR-RES ovarian
  TGI: > 100 µM
KM12 colon
  TGI: > 100 µM
NCI-H226 lung
  TGI: > 100 µM
SN12C renal
  TGI: > 100 µM
HOP-62 NSCLC
  TGI: > 100 µM
HCC-2998 colon
  TGI: > 100 µM
DU-145 prostate
  TGI: > 100 µM
786-0 renal
  TGI: > 100 µM
U251 CNS
  TGI: > 100 µM
A549 NSCLC
  TGI: > 100 µM
PC-3 prostate
  TGI: > 100 µM
RXF 393 renal
  TGI: > 100 µM
MDA-MB-231 breast
  TGI: > 100 µM
OVCAR-4 ovarian
  TGI: > 100 µM
TK-10 renal
  TGI: > 100 µM
SK-MEL-2 melanoma
  TGI: > 100 µM
HCT-15 colon
  TGI: > 100 µM
CAKI-1 renal
  TGI: > 100 µM
NCI-H23 lung
  TGI: > 100 µM
IGROV1 ovarian
  TGI: > 100 µM
MDA-MB-435
  TGI: > 100 µM
UO-31 renal
  TGI: > 100 µM
K-562 leukemia
  TGI: > 100 µM
SW-620 colon
  TGI: > 100 µM
UACC-257 melanoma
  TGI: > 100 µM
LOX IMVI melanoma
  TGI: > 100 µM
SK-OV-3 ovarian
  TGI: > 100 µM
SF-539 CNS
  TGI: > 100 µM
NCI-H522 lung
  TGI: > 100 µM
HOP-92 NSCLC
  TGI: > 100 µM
ACHN renal
  TGI: > 100 µM
SNB-19 CNS
  TGI: > 100 µM
SR leukemia
  TGI: > 100 µM
BT-549 breast
  TGI: > 100 µM
SF-268 CNS
  TGI: > 100 µM
HS 578T breast
  TGI: > 100 µM
MALME-3M melanoma
  TGI: > 100 µM
MOLT-4 leukemia
  TGI: > 100 µM
UACC-62 melanoma
  TGI: > 100 µM
T-47D breast
  TGI: > 100 µM
HCT-116 colon
  TGI: > 100 µM
NCI-H460 lung
  TGI: > 100 µM
COLO 205 colon
  TGI: > 100 µM
SF-295 CNS
  TGI: > 100 µM
MCF7 breast
  TGI: > 100 µM
RPMI-8226 leukemia
  TGI: > 100 µM
A498 renal
  TGI: > 100 µM
MDA-N
  TGI: > 100 µM
SK-MEL-5 melanoma
  TGI: > 100 µM
SK-MEL-28 melanoma
  TGI: > 100 µM
SNB-75 CNS
  TGI: > 100 µM
OVCAR-3 ovarian
  TGI: > 100 µM
OVCAR-5 ovarian
  TGI: > 100 µM
M14 melanoma
  TGI: > 100 µM
CCRF-CEM leukemia
  TGI: > 100 µM
